Data reported in patent publication US12410163B2, “Compounds as GLP-IR agonists” (Terns Pharmaceuticals, Inc., priority 2022, dated 2025).

Biological target: T1, human GLP-1R receptor (Homo sapiens, UniProt P43220)
T1 construct: expressed in transfected cells
Experiment: GLP-1R low expression cell assay (cAMP TR-FRET, CHO-K1_hGLP-1Rlow_clone10)
Format: cell-based
Conditions: CHO-K1_hGLP-1Rlow_clone10 cells, percent activation relative to control GLP-1 peptide
In short: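 CHO-K1 cells stably expressing low surface levels of human GLP-1R were exposed to 10-point, 3-fold compound dilutions for 30 min at 25 °C, then cAMP was read by TR-FRET (Eu-cAMP/ULight-anti-cAMP, 15 min). EC50 came from Hill fits of percent activation relative to a GLP-1 control agonist, duplicate wells.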

T1 sequence (P43220 24-463): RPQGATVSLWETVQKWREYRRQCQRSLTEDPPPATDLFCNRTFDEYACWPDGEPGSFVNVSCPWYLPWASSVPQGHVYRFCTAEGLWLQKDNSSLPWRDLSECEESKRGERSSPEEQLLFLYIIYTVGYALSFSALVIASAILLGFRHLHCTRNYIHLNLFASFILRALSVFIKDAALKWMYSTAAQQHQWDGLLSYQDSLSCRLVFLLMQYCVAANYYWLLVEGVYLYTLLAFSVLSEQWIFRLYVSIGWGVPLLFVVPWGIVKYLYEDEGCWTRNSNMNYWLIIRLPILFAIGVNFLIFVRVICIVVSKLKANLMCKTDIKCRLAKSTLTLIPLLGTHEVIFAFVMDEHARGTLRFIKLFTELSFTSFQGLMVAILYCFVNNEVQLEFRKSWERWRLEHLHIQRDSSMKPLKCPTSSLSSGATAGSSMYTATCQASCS

Structure (SMILES) | EC50 [nM]
N#Cc1ccc(COc2cccc(N3CCN(Cc4nc5ccc(C(=O)O)cc5n4Cc4cncs4)[C@@H]4C[C@@H]43)n2)c(F)c1 (single isomer, unassigned) [Compound 1, 2-((5-(6-((4-cyano-2-fluorobenzyl)oxy)pyridin-2-yl)-2,5-diazabicyclo[4.1.0]heptan-2-yl)methyl)-1-(thiazol-5-ylmethyl)-1H-benzo[d]imidazole-6-carboxylic Acid] | < 5
N#Cc1ccc(COc2cccc(N3CCN(Cc4nc5ccc(C(=O)O)cc5n4Cc4cncs4)[C@H]4C[C@H]43)n2)c(F)c1 (single isomer, unassigned) [Compound 2, 2-((5-(6-((4-Cyano-2-fluorobenzyl)oxy)pyridin-2-yl)-2,5-diazabicyclo[4.1.0]heptan-2-yl)methyl)-1-(thiazol-5-ylmethyl)-1H-benzo[d]imidazole-6-carboxylic Acid] | 50 to 100
N#Cc1ccc(COc2cccc([C@H]3CCN(Cc4nc5ccc(C(=O)O)cc5n4Cc4cncs4)[C@@H]4C[C@H]34)n2)c(F)c1 (single isomer, unassigned) [Compound 4, 2-((5-(6-((4-Cyano-2-fluorobenzyl)oxy)pyridin-2-yl)-2-azabicyclo[4.1.0]heptan-2-yl)methyl)-1-(thiazol-5-ylmethyl)-1H-benzo[d]imidazole-6-carboxylic Acid] | < 5
N#Cc1ccc(COc2ccnc(N3CCN(Cc4nc5ccc(C(=O)O)cc5n4Cc4cncs4)[C@@H]4C[C@@H]43)n2)c(F)c1 [Compound 20, 2-((5-(4-((4-Cyano-2-fluorobenzyl)oxy)pyrimidin-2-yl)-2,5-diazabicyclo[4.1.0]heptan-2-yl)methyl)-1-(thiazol-5-ylmethyl)-1H-benzo[d]imidazole-6-carboxylic Acid] | 5 to 50
N#Cc1ccc(COc2cccc([C@H]3CCN(Cc4nc5ccc(C(=O)O)cc5n4Cc4cncs4)[C@H]4C[C@@H]34)n2)c(F)c1 (single isomer, unassigned) [Compound 14, 2-((5-(6-((4-Cyano-2-fluorobenzyl)oxy)pyridin-2-yl)-2-azabicyclo[4.1.0]heptan-2-yl)methyl)-1-(thiazol-5-ylmethyl)-1H-benzo[d]imidazole-6-carboxylic Acid] | 5 to 50
N#Cc1ccc(COc2cccc(N3CCN(Cc4nc5ccc(C(=O)O)cc5n4C[C@@H]4CCO4)[C@@H]4C[C@@H]43)n2)c(F)c1 (single isomer, unassigned) [Compound 43] | < 5
CC1(c2ccc(C#N)cc2F)Oc2cccc(C3CCN(Cc4nc5ccc(C(=O)O)cc5n4Cc4cncs4)CC3)c2O1 (centres unmarked) [Compound 18] | < 5
CCn1nncc1Cn1c(CN2CCN(c3cccc(OCc4ccc(C#N)cc4F)n3)[C@H]3C[C@H]32)nc2ccc(C(=O)O)cc21 [Compound 45, 2-((5-(6-((4-Cyano-2-fluorobenzyl)oxy)pyridin-2-yl)-2,5-diazabicyclo[4.1.0]heptan-2-yl)methyl)-1-((1-ethyl-1H-1,2,3-triazol-5-yl)methyl)-1H-benzo[d]imidazole-6-carboxylic Acid] | < 5
N#Cc1ccc(COc2cccc([C@@H]3CCN(Cc4nc5ccc(C(=O)O)cc5n4Cc4cncs4)[C@@H]4C[C@@H]43)n2)c(F)c1 (single isomer, unassigned) [Compound 5, 2-((5-(6-((4-Cyano-2-fluorobenzyl)oxy)pyridin-2-yl)-2-azabicyclo[4.1.0]heptan-2-yl)methyl)-1-(thiazol-5-ylmethyl)-1H-benzo[d]imidazole-6-carboxylic Acid] | 5 to 50
CC1(c2ccc(C#N)cc2F)Oc2cccc(N3CCN(Cc4nc5ccc(C(=O)O)cc5n4CC4(C#N)CC4)C4CC43)c2O1 (centres unmarked) [Compound 40, 2-((5-(2-(4-Cyano-2-fluorophenyl)-2-methylbenzo[d][1,3]dioxol-4-yl)-2,5-diazabicyclo[4.1.0]heptan-2-yl)methyl)-1-((1-cyanocyclopropyl)methyl)-1H-benzo[d]imidazole-6-carboxylic Acid] | < 5
N#Cc1ccc(COc2cccc([C@@H]3CCN(Cc4nc5ccc(C(=O)O)cc5n4Cc4cncs4)[C@H]4C[C@@H]34)n2)c(F)c1 (single isomer, unassigned) [Compound 15, 2-((5-(6-((4-Cyano-2-fluorobenzyl)oxy)pyridin-2-yl)-2-azabicyclo[4.1.0]heptan-2-yl)methyl)-1-(thiazol-5-ylmethyl)-1H-benzo[d]imidazole-6-carboxylic Acid] | 5 to 50
